Experimental findings from US20240025924A1, “HETEROCYCLE SUBSTITUTED KETONE DERIVATIVE, AND COMPOSITION AND MEDICINAL USE THEREOF” (SHANGHAI HAIYAN PHARMACEUTICAL TECHNOLOGY CO., LTD., priority 2021, published 2024) are described below.

The IC50 is the concentration needed to halve the response being measured.

One assay concerns the target T1, SHP-2 enzyme (Homo sapiens, UniProt Q06124).
T1 construct: Homogeneous Full Length SHP-2 Assay Kit (BPS Bioscience #79330); purchased BPS Bioscience 79330
T1 sequence (Q06124 1-593): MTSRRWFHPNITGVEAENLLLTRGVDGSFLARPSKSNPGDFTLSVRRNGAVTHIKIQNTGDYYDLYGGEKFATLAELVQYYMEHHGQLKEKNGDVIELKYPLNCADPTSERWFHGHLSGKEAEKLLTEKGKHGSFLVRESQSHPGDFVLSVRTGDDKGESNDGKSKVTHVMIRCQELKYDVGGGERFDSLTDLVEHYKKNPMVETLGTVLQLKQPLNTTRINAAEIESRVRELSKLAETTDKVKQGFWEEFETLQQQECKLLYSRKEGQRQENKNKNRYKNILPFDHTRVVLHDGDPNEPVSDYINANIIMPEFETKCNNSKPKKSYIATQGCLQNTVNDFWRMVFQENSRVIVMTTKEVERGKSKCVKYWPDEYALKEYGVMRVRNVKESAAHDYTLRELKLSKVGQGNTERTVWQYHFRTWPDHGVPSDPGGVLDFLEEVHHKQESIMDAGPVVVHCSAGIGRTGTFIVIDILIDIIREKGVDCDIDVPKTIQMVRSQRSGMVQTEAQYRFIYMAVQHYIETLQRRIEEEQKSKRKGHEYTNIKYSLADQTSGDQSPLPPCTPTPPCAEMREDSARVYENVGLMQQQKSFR
Kind of assay: Phosphatase activity assay (Homogeneous Full Length SHP-2 Assay Kit, DiFMUP substrate). The format is biochemical. The settings on record: full length SHP-2 activated with 0.5 μM SHP-2 activating Peptide; 1 hour co-incubation; DiFMUP 50 μM, 30 min. The procedure:
IC50 values were assayed using Homogeneous Full Length SHP-2 Assay Kit (BPS Bioscience #79330), which uses 6,8-difluoro-4-methylumbelliferone phosphate (DiFMUP) as the reaction substrate. SHP2 enzyme solution (diluted to 0.04 ng/μL with 1*buffer) was mixed with 0.5 μM SHP-2 activating Peptide in a 1*buffer solution containing 2.5 mM DTT to activate PTP. At the same time, DMSO (0.1% (V/V)) or the compounds (concentration: 0.5 nM to 1 μM) were added, mixed and co-incubated for 1 hour. DiFMUP (50 μM, total reaction system volume of 20 μL) was added, and the reaction was started. After 30 min of incubation, the fluorescence intensity of the reaction system (excitation wavelength: 350 nm, emission wavelength: 460 nm) was measured by Tecan Infinite M1000.

A further assay concerns MV-4-11 cell. Kind of assay: Cell proliferation assay (Cell Titer-Glo). The format is cell-based. Conditions: Homo sapiens, MV4-11, 96 h, inhibition of MV-4-11 cell proliferation; Cell Titer-Glo on day 4. On the procedure: MV 411 cells (20000 cells/well) were inoculated and cultured in 96 (Corning #3916) well plates, and the medium was 80 μL/well (IMDM with 10% fetal bovine serum (FBS), Gibco #10099-141C). After 24 hours of incubation, 20 μL of the compounds of the present invention configured to different concentrations (DMSO final concentration of 0.1% (V/V)) were added. On day 4, 60 μL of Cell Titer-Glo (Promega #G7558) was added to each well and mixed at 80 rpm, 25° C., 15 min, and the fluorescence values were detected by Victor X5 (PE).
For orientation: ATP-based viability assays read luminescence as a measure of living cells.

With `Nc1nc(N2CCC3(CC2)Cc2ccccc2C3N)cnc1C(=O)N1CCn2nccc2C1` (centres unmarked) [Compound 37], the IC50 is 5 nM at SHP-2 enzyme and 172 nM in the assay on MV-4-11 cell.
On to `Cn1c(N2CCC3(CC2)Cc2ccccc2C3N)nc(N)c(C(=O)N2CCCn3nccc32)c1=O` (centres unmarked) [Compound 40], for which the IC50 on SHP-2 enzyme and with MV-4-11 cell was 59 nM throughout.
Take `Nc1nc(N2CCC3(CC2)Cc2ccccc2C3N)nnc1C(=O)N1CCCn2nccc21` (centres unmarked) [Compound 45]: the IC50 at SHP-2 enzyme is 7 nM; with MV-4-11 cell it was 176 nM.
Regarding `NC1c2ccccc2CC12CCN(c1ncc(C(=O)N3CCc4ncsc4C3)c3nccn13)CC2` (centres unmarked) [Compound 46], the IC50 on SHP-2 enzyme came out at 29 nM; in the assay on MV-4-11 cell it was 166 nM.
The corresponding values for `Nc1nc(N2CCC3(CC2)Cc2ccccc2C3N)c(F)nc1C(=O)N1CCCn2nccc21` (centres unmarked) [Compound 49] are 8 nM and 241 nM.
The like results for `Cn1cnc2c1CCCN2C(=O)c1ncc(N2CCC3(CC2)Cc2ccccc2C3N)nc1N` (centres unmarked) [Compound 50] were, in that order, 14 nM and 241 nM.
Turning to `Nc1nc(N2CCC3(CC2)Cc2ccccc2C3N)cnc1C(=O)N1CCc2nc(Cl)ccc21` (centres unmarked) [Compound 52], the IC50 on SHP-2 enzyme came to 4 nM; in the assay with MV-4-11 cell, 196 nM.
With `Nc1nc(N2CCC3(CC2)Cc2cc(Cl)ccc2C3N)cnc1C(=O)N1CCc2ncccc21` (centres unmarked) [Compound 53], the IC50 turned out to be 4 nM on SHP-2 enzyme and 192 nM with MV-4-11 cell.
Consider `CC1(C)CN(C(=O)c2ncc(N3CCC4(CC3)Cc3ccccc3C4N)nc2N)Cc2scnc21` (centres unmarked) [Compound 54], for which the IC50 at SHP-2 enzyme amounted to 8 nM; in the assay on MV-4-11 cell it was 206 nM.
Consider `CC1(C)CN(C(=O)c2ncc(N3CCC4(CC3)Cc3ccccc3C4N)nc2N)Cc2sc(N)nc21` (centres unmarked) [Compound 61], for which the IC50 worked out at 7 nM on SHP-2 enzyme and 71 nM with MV-4-11 cell.
Turning to `COc1ccc2c(c1)C(N)C1(CCN(c3cnc(C(=O)N4CCc5nc(N)ccc54)c(N)n3)CC1)C2` (centres unmarked) [Compound 62], the IC50 at SHP-2 enzyme came to 5 nM; with MV-4-11 cell, 156 nM.
As for `Cc1ccc2c(c1)C(N)C1(CCN(c3cnc(C(=O)N4CCc5nc(N)ccc54)c(N)n3)CC1)C2` (centres unmarked) [Compound 64], the figures for the IC50 at SHP-2 enzyme and in the assay with MV-4-11 cell were 5 nM and 70 nM, respectively.
Consider `Cc1nc(C(=O)N2Cc3sc(N)nc3C(F)(F)C2)c(N)nc1N1CCC2(CC1)Cc1ccccc1C2N` (centres unmarked) [Compound 65], for which the values for the IC50 on SHP-2 enzyme and with MV-4-11 cell were 4 nM and 5 nM, respectively.
With `Nc1ccc2c(n1)CCN2C(=O)c1ncc(N2CCC3(CC2)Cc2ccc(CO)cc2C3N)nc1N` (centres unmarked) [Compound 66], the results for the IC50 at SHP-2 enzyme and in the assay with MV-4-11 cell were 9 nM and 196 nM, respectively.
In the case of `Nc1nc(N2CCC3(CC2)Cc2ccccc2C3N)cnc1C(=O)N1CCCc2n[nH]cc21` (centres unmarked) [Compound 67], the values for the IC50 on SHP-2 enzyme and in the assay on MV-4-11 cell were 7 nM and 79 nM, respectively.
Regarding `Nc1ccc2c(n1)CCN2C(=O)c1cnc(N2CCC3(CC2)Cc2ccccc2C3N)c(CO)n1` (centres unmarked) [Compound 68], the IC50 at SHP-2 enzyme came out at 7 nM; with MV-4-11 cell it was 125 nM.
`Nc1nc2c(s1)CN(C(=O)c1ncc(N3CCC4(CC3)Cc3ccccc3C4N)nc1N)CC2` (centres unmarked) [Compound 75]: the IC50 on SHP-2 enzyme came to 5 nM; in the assay with MV-4-11 cell, 9 nM.
In the case of `COc1ccc2c(c1)CC1(CCN(c3cnc(C(=O)N4CCCn5nccc54)c(N)n3)CC1)C2N` (centres unmarked) [Compound 76], the half-inhibitory concentration (IC50) is 10 nM on SHP-2 enzyme and 191 nM with MV-4-11 cell.
The like results for `Nc1nc(N2CCC3(CC2)Cc2c(F)cccc2C3N)nnc1C(=O)N1CCCn2nccc21` (centres unmarked) [Compound 77] were, in that order, 11 nM and 150 nM.
Regarding `Nc1nc(N2CCC3(CC2)Cc2c(F)cccc2C3N)c(F)nc1C(=O)N1CCCn2nccc21` (centres unmarked) [Compound 78], the IC50 at SHP-2 enzyme turned out to be 10 nM; in the assay on MV-4-11 cell it was 218 nM.
The like results for `Nc1nc(N2CCC3(CC2)Cc2ccncc2C3N)cnc1C(=O)N1CCCn2nccc21` (centres unmarked) [Compound 79] were, in that order, 14 nM and 257 nM.
Turning to `Nc1nc(N2CCC3(CC2)Cc2ccccc2C3N)cnc1C(=O)N1CCc2nc(F)ccc21` (centres unmarked) [Compound 80], the IC50 was found to be 4 nM at SHP-2 enzyme and 127 nM in the assay on MV-4-11 cell.
The like results for `Nc1nc(N2CCC3(CC2)Cc2cc(F)ccc2C3N)cnc1C(=O)N1CCc2nc(F)ccc21` (centres unmarked) [Compound 81] were, in that order, 4 nM and 128 nM.
The corresponding values for `Nc1nc2c(s1)CN(C(=O)c1nc(Cl)c(N3CCC4(CC3)Cc3ccccc3C4N)nc1N)CC2` (centres unmarked) [Compound 83] are 4 nM and 17 nM.
Regarding `Cc1nc(C(=O)N2CCc3nc(N)sc3C2)c(N)nc1N1CCC2(CC1)Cc1ccccc1C2N` (centres unmarked) [Compound 85], the IC50 on SHP-2 enzyme amounted to 4 nM; with MV-4-11 cell it was 12 nM.
The corresponding values for `Nc1nc(N2CCC3(CC2)Cc2ncsc2C3N)cnc1C(=O)N1CCCn2nccc21` (centres unmarked) [Compound 86] are 8 nM and 286 nM.
Consider `CC1(C)CCN(C(=O)c2ncc(N3CCC4(CC3)Cc3ccccc3C4N)nc2N)c2ccnn21` (centres unmarked) [Compound 87], for which the results for the IC50 at SHP-2 enzyme and in the assay on MV-4-11 cell were 9 nM and 159 nM, respectively.
As for `CC1CN(C(=O)c2ncc(N3CCC4(CC3)Cc3cc(F)ccc3C4N)nc2N)c2ccc(N)nc21` (centres unmarked) [Compound 88], the IC50 on SHP-2 enzyme is 5 nM; with MV-4-11 cell it was 235 nM.
With `CC1CN(C(=O)c2ncc(N3CCC4(CC3)Cc3ccccc3C4N)nc2N)c2ccc(N)nc21` (centres unmarked) [Compound 89], the IC50 on SHP-2 enzyme was 4 nM; with MV-4-11 cell it was 127 nM.
With `Nc1ccc2c(n1)CCN2C(=O)c1ncc(N2CCC3(CC2)Cc2ccc(Cl)cc2C3N)nc1N` (centres unmarked) [Compound 91], the half-maximal inhibitory concentration (IC50) at SHP-2 enzyme was 3 nM; with MV-4-11 cell, 61 nM.
Take `CNc1ccc2c(n1)CCN2C(=O)c1ncc(N2CCC3(CC2)Cc2ccccc2C3N)nc1N` (centres unmarked) [Compound 92]: the IC50 on SHP-2 enzyme worked out at 4 nM; in the assay with MV-4-11 cell it was 119 nM.
With `COc1ccc2c(c1)C(N)C1(CCN(c3cnc(C(=O)N4Cc5sc(N)nc5C(C)(C)C4)c(N)n3)CC1)C2` (centres unmarked) [Compound 93], the IC50 on SHP-2 enzyme came to 8 nM; in the assay with MV-4-11 cell, 114 nM.
For the compound `CC1(C)CN(C(=O)c2ncc(N3CCC4(CC3)Cc3ccc(F)cc3C4N)nc2N)Cc2sc(N)nc21` (centres unmarked) [Compound 94], the IC50 was determined as 7 nM on SHP-2 enzyme and 110 nM in the assay with MV-4-11 cell.
The like results for `Nc1ccc2c(n1)CCN2C(=O)c1ncc(N2CCC3(CC2)Cc2ccc(F)cc2C3N)nc1N` (centres unmarked) [Compound 95] were, in that order, 3 nM and 176 nM.
For the compound `Nc1ccc2c(c1)CCN2C(=O)c1ncc(N2CCC3(CC2)Cc2ccccc2C3N)nc1N` (centres unmarked) [Compound 96], the half-maximal inhibitory concentration (IC50) at SHP-2 enzyme stood at 4 nM; in the assay on MV-4-11 cell it was 157 nM.
The like results for `Cc1cc2c(cc1C)C(N)C1(CCN(c3cnc(C(=O)N4CCc5nc(N)sc5C4)c(N)n3)CC1)C2` (centres unmarked) [Compound 99] were, in that order, 10 nM and 46 nM.
As for `Cc1nc(C(=O)N2CCc3nc(N)ccc32)c(N)nc1N1CCC2(CC1)Cc1ccccc1C2N` (centres unmarked) [Compound 100], the IC50 on SHP-2 enzyme is 7 nM; in the assay on MV-4-11 cell, 51 nM.
The like results for `Cc1nc(C(=O)N2Cc3sc(N)nc3C(C)(C)C2)c(N)nc1N1CCC2(CC1)Cc1ccccc1C2N` (centres unmarked) [Compound 101] were, in that order, 18 nM and 85 nM.
As to `Cc1ccc2c(c1)C(N)C1(CCN(c3cnc(C(=O)N4Cc5sc(N)nc5C(C)(C)C4)c(N)n3)CC1)C2` (centres unmarked) [Compound 102], the figures for the IC50 on SHP-2 enzyme and with MV-4-11 cell were 11 nM and 57 nM, respectively.
For the compound `CNc1ccc2c(n1)CCN2C(=O)c1nc(C)c(N2CCC3(CC2)Cc2ccccc2C3N)nc1N` (centres unmarked) [Compound 103], the IC50 at SHP-2 enzyme is 13 nM; in the assay with MV-4-11 cell it was 65 nM.
Regarding `Cc1ccc2c(c1)C(N)C1(CCN(c3nc(N)c(C(=O)N4CCc5nc(N)ccc54)nc3C)CC1)C2` (centres unmarked) [Compound 104], the IC50 on SHP-2 enzyme came out at 10 nM; in the assay with MV-4-11 cell it was 58 nM.
The corresponding values for `Cc1nc(C(=O)N2Cc3sc(N)nc3C(C)C2)c(N)nc1N1CCC2(CC1)Cc1ccccc1C2N` (centres unmarked) [Compound 105] are 13 nM and 25 nM.
With `Nc1ccc2c(n1)CCN2C(=O)c1nc(C2CC2)c(N2CCC3(CC2)Cc2ccccc2C3N)nc1N` (centres unmarked) [Compound 106], the values for the IC50 on SHP-2 enzyme and in the assay with MV-4-11 cell were 15 nM and 164 nM, respectively.
